From patent publication US20250129078A1, “ERBB2 INHIBITORS” (Cogent Biosciences, Inc., priority 2023, published 2025)

Biological target: EGFR WT (Homo sapiens (Human), UniProt P00533)
Assay: ErbB enzyme assay (CisBio HTRF-KinEASE-TK), EGFR WT
Type: biochemical
Conditions: ATP at Km (25 μM), 1 h incubation
Description: In vitro enzyme assays based on CisBio HTRF-KinEASE-TK technology were used to determine compound potencies. […]. Compounds were prepared as a three-fold serial dilution in DMSO and added to the assay to give the appropriate final concentration. After a 1 h incubation at ambient temperature, the reaction was quenched by adding 10 μL of 62.5 nM Sa-XL665 and 0.25×TK-Ab-Cryptate in HTRF detection buffer (all from CisBio, part of cat #62TKOPEC). After another 1 h incubation at ambient temperature, the extent of substrate phosphorylation was determined using a PerkinElmer EnVision multimode plate reader via time-resolved fluorescence dual wavelength detection. The percent of control (POC) was calculated using the ratio of emission at […] to the emission at 620 nm. One hundred POC was determined using DMSO only controls (no test compounds present) and zero POC was determined using pre-quenched controls reactions. A 4-parameter logistic equation was fit to the POC values as a function of the test compound concentration and the IC50 value was determined as the point where the curve crossed 50 POC.

Chain of EGFR WT (P00533 25-1210): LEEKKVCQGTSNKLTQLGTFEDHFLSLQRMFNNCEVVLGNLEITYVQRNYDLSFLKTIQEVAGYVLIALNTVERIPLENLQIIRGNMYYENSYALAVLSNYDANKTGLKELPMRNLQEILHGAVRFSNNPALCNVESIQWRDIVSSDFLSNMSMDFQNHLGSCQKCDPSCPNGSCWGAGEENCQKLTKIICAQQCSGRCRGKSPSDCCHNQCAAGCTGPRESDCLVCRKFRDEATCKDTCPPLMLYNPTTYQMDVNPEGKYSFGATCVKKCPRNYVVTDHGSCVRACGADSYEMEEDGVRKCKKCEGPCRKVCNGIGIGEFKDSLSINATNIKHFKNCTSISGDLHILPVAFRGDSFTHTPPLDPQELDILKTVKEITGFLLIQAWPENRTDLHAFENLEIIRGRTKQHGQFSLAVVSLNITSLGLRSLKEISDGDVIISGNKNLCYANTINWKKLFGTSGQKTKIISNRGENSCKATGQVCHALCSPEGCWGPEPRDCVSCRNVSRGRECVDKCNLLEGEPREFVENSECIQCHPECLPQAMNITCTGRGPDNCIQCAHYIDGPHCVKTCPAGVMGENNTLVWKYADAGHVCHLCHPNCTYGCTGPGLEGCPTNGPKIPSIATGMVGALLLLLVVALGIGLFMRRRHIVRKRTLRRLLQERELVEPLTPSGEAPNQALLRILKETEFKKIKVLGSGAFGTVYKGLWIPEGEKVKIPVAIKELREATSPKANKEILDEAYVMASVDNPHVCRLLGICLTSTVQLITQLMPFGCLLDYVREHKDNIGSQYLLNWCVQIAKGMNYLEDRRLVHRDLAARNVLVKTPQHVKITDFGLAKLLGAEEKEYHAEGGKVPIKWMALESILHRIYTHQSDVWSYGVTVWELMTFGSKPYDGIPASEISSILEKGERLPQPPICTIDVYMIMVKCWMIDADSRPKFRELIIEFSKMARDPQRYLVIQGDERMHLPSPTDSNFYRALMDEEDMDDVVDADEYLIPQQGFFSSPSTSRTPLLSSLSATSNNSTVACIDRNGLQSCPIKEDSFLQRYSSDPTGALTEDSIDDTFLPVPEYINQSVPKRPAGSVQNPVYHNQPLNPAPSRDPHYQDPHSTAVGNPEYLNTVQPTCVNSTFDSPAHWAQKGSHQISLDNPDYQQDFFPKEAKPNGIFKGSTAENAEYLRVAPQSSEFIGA

| Structure (SMILES) | IC50 [nM] |
| --- | --- |
| C=CC(=O)N[C@H]1CN(c2ccc3ncnc(Nc4ccc(Oc5ccc6c(c5)nnn6C)c(C)c4F)c3n2)CC[C@@H]1C (single isomer, unassigned) [Compound 346] | 100 to 500 |
| C=CC(=O)N1CCC(Oc2ncc3ncnc(Nc4ccc(Oc5ccc6c(c5)ncn6C)c(C)c4)c3n2)C(F)(F)C1 (stereo not shown) [Compound 393, 1-(3,3-difluoro-4-((8-((3-methyl-4-((1-methyl-1H-benzo[d]imidazol-5-yl)oxy)phenyl)amino)pyrimido[5,4-d]pyrimidin-2-y1)oxy)piperidin-1-yl)prop-2-en-1-one] | < 50 |
| C=CC(=O)N1CCC=C(c2ccc3ncnc(Nc4ccc(Oc5ccc6c(c5)nnn6C)c(C)c4)c3n2)C1 [Compound 407, 1-(5-(4-((3-methyl-4-((1-methyl-1H-benzo[d][1,2,3]triazol-5-yl)oxy)phenyl)amino)pyrido[3,2-d]pyrimidin-6-yl)-3,6-dihydropyridin-1(2H)-yl)prop-2-en-1-one] | < 50 |
| C=CC(=O)N1CCN(c2ccc3ncnc(Nc4cc(C)c(Oc5ccc6c(c5)nnn6C)cc4OC(F)F)c3n2)CC1(C)C [Compound 305, 1-(4-(4-((2-(difluoromethoxy)-5-methyl-4-((1-methyl-1H-benzo[d][1,2,3]triazol-5-yl)oxy)phenyl)amino)pyrido[3,2-d]pyrimidin-6-yl)-2,2-dimethylpiperazin-1-yl)prop-2-en-1-one] | 100 to 500 |
| C=CC(=O)N1CCN(c2ccc3ncnc(Nc4ccc(Oc5ccc6c(c5)nnn6C)c(C)c4)c3n2)CC1(C)C [Compound 89, 1-(2,2-dimethyl-4-(4-((3-methyl-4-((1-methyl-1H-benzo[d][1,2,3]triazol-5-yl)oxy)phenyl)amino)pyrido[3,2-d]pyrimidin-6-yl)piperazin-1-yl)prop-2-en-1-one] | 50 to 100 |
| C=CC(=O)N1CCN(c2ncc3ncnc(Nc4ccc(Oc5cnc6c(c5)ncn6C)c(C)c4F)c3n2)CC1 [Compound 118, 1-(4-(8-((2-fluoro-3-methyl-4-((3-methyl-3H-imidazo[4,5-b]pyridin-6-yl)oxy)phenyl)amino)pyrimido [5,4-d]pyrimidin-2-y1)piperazin-1-yl)prop-2-en-1-one] | < 50 |
| C=CC(=O)N1CCN(c2ccc3ncnc(Nc4ccc(Oc5ccc6c(c5)nnn6C)c(C)c4)c3n2)C[C@H]1COC [Compound 77, (S)-1-(2-(methoxymethyl)-4-(4-((3-methyl-4-((1-methyl-1H-benzo[d][1,2,3]triazol-5-yl)oxy)phenyl)amino)pyrido[3,2-d]pyrimidin-6-yl)piperazin-1-yl)prop-2-en-1-one] | < 50 |
| C=CC(=O)N1CCN(c2ncc3ncnc(Nc4ccc(Oc5ccc6c(c5)nnn6C)c(F)c4F)c3n2)CC1 [Compound 10, 1-(4-(8-((2,3-difluoro-4-((1-methyl-1H-benzo[d][1,2,3]triazol-5-yl)oxy)phenyl)amino)pyrimido[5,4-d]pyrimidin-2-yl)piperazin-1-yl)prop-2-en-1-one] | 100 to 500 |
| C=CC(=O)N1CCN(c2ncc3ncnc(Nc4cc(F)c(Oc5ccc6c(c5)nnn6C)c(Cl)c4)c3n2)C[C@H]1C [Compound 194, (R)-1-(4-(8-((3-chloro-5-fluoro-4-((1-methyl-1H-benzo[d][1,2,3]triazol-5-yl)oxy)phenyl)amino)pyrimido[5,4-d]pyrimidin-2-y1)-2-methylpiperazin-1-yl)prop-2-en-1-one] | < 50 |
| C=CC(=O)N1CCN(c2ncc3ncnc(Nc4ccc(Oc5cc(F)c6c(c5)ncn6C)c(C)c4F)c3n2)CC[C@@H]1C [Compound 181, (S)-1-(4-(8-((2-fluoro-4-((7-fluoro-1-methyl-1H-benzo[d]imidazol-5-yl)oxy)-3-methylphenyl)amino)pyrimido[5,4-d]pyrimidin-2-y1)-7-methyl-1,4-diazepan-1-yl)prop-2-en-1-one] | < 50 |
| C=CC(=O)N[C@H]1C[C@H](C)CN(c2ccc3ncnc(Nc4ccc(Oc5ccc6c(c5)nnn6C)c(C)c4F)c3n2)C1 (single isomer, unassigned) [Compound 339] | 100 to 500 |
| C=CC(=O)N[C@@H]1CCN(c2ccc3ncnc(Nc4ccc(Oc5ccc6c(c5)nnn6C)c(C)c4F)c3n2)CC1(C)C [Compound 344, (R)-N-(1-(4-((2-fluoro-3-methyl-4-((1-methyl-1H-benzo[d][1,2,3]triazol-5-yl)oxy)phenyl)amino)pyrido[3,2-d]pyrimidin-6-yl)-3,3-dimethylpiperidin-4-yl)acrylamide] | 100 to 500 |
| C=CC(=O)N1CCN(c2ncc3ncnc(Nc4ccc(Oc5cc(F)c6c(c5)ncn6C)c(C)c4F)c3n2)CC1 [Compound 111, 1-(4-(8-((2-fluoro-4-((7-fluoro-1-methyl-1H-benzo[d]imidazol-5-yl)oxy)-3-methylphenyl)amino)pyrimido[5,4-d]pyrimidin-2-yl)piperazin-1-y1)prop-2-en-1-one] | < 50 |
| C=CC(=O)N[C@@H]1CCCN(c2ncc3ncnc(Nc4ccc(Oc5cc(F)c6c(c5)nnn6C)c(C)c4F)c3n2)C1 [Compound 178, (R)-N-(1-(8-((2-fluoro-4-((7-fluoro-1-methyl-1H-benzo[d][1,2,3]triazol-5-yl)oxy)-3-methylphenyl)amino)pyrimido[5,4-d]pyrimidin-2-yl)piperidin-3-yl)acrylamide] | < 50 |
| C=CC(=O)N1CCN(c2ncc3ncnc(Nc4ccc(Oc5cc6nnn(C)c6c(C)c5F)c(C)c4)c3n2)CC1 [Compound 141, 1-(4-(8-((4-((6-fluoro-1,7-dimethyl-1H-benzo[d][1,2,3]triazol-5-yl)oxy)-3-methylphenyl)amino)pyrimido[5,4-d]pyrimidin-2-yl)piperazin-1-yl)prop-2-en-1-one] | 100 to 500 |
| C=CC(=O)N1CC[C@@H](Oc2ncc3ncnc(Nc4ccc(Oc5cc(F)c6c(c5)ncn6C)c(C)c4)c3n2)C1 [Compound 385, (R)-1-(3-((8-((4-((7-fluoro-1-methyl-1H-benzo[d]imidazol-5-yl)oxy)-3-methylphenyl)amino)pyrimido[5,4-d]pyrimidin-2-yl)oxy)pyrrolidin-1-yl)prop-2-en-1-one] | 100 to 500 |
| C=CC(=O)N1CCN(c2ccc3ncnc(Nc4ccc(Oc5ccc6c(c5)ncn6C(F)F)c(C)c4)c3n2)C[C@H]1C [Compound 340, (R)-1-(4-(4-((4-((1-(difluoromethyl)-1H-benzo[d]imidazol-5-yl)oxy)-3-methylphenyl)amino)pyrido[3,2-d]pyrimidin-6-yl)-2-methylpiperazin-1-yl)prop-2-en-1-one] | 50 to 100 |
| C=CC(=O)N[C@H]1C[C@H](C)CN(c2ncc3ncnc(Nc4ccc(Oc5ccc6c(c5)nnn6C)c(C)c4F)c3n2)C1 (single isomer, unassigned) [Compound 202] | 500 to 1000 |
| C=C(F)C(=O)N1CCN(c2ccc3ncnc(Nc4ccc(Oc5ccc6c(c5)nnn6C)c(C)c4)c3n2)C[C@H]1CC#N [Compound 86, (R)-2-(1-(2-fluoroacryloyl)-4-(4-((3-methyl-4-((1-methyl-1H-benzo[d][1,2,3]triazol-5-yl)oxy)phenyl)amino)pyrido[3,2-d]pyrimidin-6-yl)piperazin-2-yl)acetonitrile] | ≥ 1000 |
| C=CC(=O)N1CCN(c2ccc3ncnc(Nc4ccc(Oc5cc6ncnn6cn5)c(C)c4)c3n2)C[C@H]1C [Compound 329, (R)-1-(4-(4-((4-([1,2,4]triazolo[1,5-c]pyrimidin-7-yloxy)-3-methylphenyl)amino)pyrido[3,2-d]pyrimidin-6-yl)-2-methylpiperazin-1-yl)prop-2-en-1-one] | 50 to 100 |
| Cc1cc(Nc2ncnc3ccc(N4CCN(C(=O)/C=C/C(F)F)[C@H](C)C4)nc23)ccc1Oc1ccc2c(c1)nnn2C [Compound 368, (R,E)-4,4-difluoro-1-(2-methyl-4-(4-((3-methyl-4-((1-methyl-1H-benzo[d][1,2,3]triazol-5-yl)oxy)phenyl)amino)pyrido[3,2-d]pyrimidin-6-yl)piperazin-1-yl)but-2-en-1-one] | 50 to 100 |
| C=CC(=O)N1CCN(c2ncc3ncnc(Nc4ccc(Oc5ccc6c(c5)nnn6C)c(C)c4)c3n2)C[C@H]1COC [Compound 120, (S)-1-(2-(methoxymethyl)-4-(8-((3-methyl-4-((1-methyl-1H-benzo[d][1,2,3]triazol-5-yl)oxy)phenyl)amino)pyrimido[5,4-d]pyrimidin-2-y1)piperazin-1-yl)prop-2-en-1-one] | 50 to 100 |
| C=CC(=O)N[C@@H]1CN(c2ccc3ncnc(Nc4ccc(Oc5ccc6c(c5)nnn6C)c(C)c4F)c3n2)CC[C@H]1C [Compound 309, N-((3S,4R)-1-(4-((2-fluoro-3-methyl-4-((1-methyl-1H-benzo[d][1,2,3]triazol-5-yl)oxy)phenyl)amino)pyrido[3,2-d]pyrimidin-6-yl)-4-methylpiperidin-3-y1)acrylamide] | 100 to 500 |
| C=CC(=O)N1CCC(Oc2ncc3ncnc(Nc4ccc(Oc5ccc6c(c5)ncn6C)c(OC)c4)c3n2)CC1 [Compound 379, 1-(4-((8-((3-methoxy-4-((1-methyl-1H-benzo[d]imidazol-5-yl)oxy)phenyl)amino)pyrimido[5,4-d]pyrimidin-2-yl)oxy)piperidin-1-yl)prop-2-en-1-one] | 100 to 500 |
| C=CC(=O)N[C@H]1[C@@H]2C[C@H]1CN(c1ncc3ncnc(Nc4ccc(Oc5ccc6c(c5)nnn6C)c(C)c4)c3n1)C2 [Compound 207, N-((1R,5S,6r)-3-(8-((3-methyl-4-((1-methyl-1H-benzo[d][1,2,3]triazol-5-yl)oxy)phenyl)amino)pyrimido[5,4-d]pyrimidin-2-yl)-3-azabicyclo[3.1.1]heptan-6-yl)acrylamide] | 100 to 500 |
